This is an account of results in paper PMC9017349, “Spiropyrimidinetriones: a Class of DNA Gyrase Inhibitors with Activity against Mycobacterium tuberculosis and without Cross-Resistance to Fluoroquinolones” (Antimicrobial Agents and Chemotherapy, 2022).

Assay [1] relates to M. tuberculosis H37Rv. Nature of the assay: microbe, parasite or virus in culture. The assay is classed as cell-based. As to conditions: Mycobacterium tuberculosis, 168 h.
The subject of assay [2] is M. tuberculosis H37Rv. In words: MIC against M. tuberculosis H37Rv in 7H9 medium with various supplements. The assay is classed as cell-based, Mycobacterium tuberculosis. As to conditions: Mycobacterium tuberculosis.
The next assay relates to Mtb. The assay is classed as in vivo. As to conditions: 100 mg/kg, day 21; limit 1.57 log10 CFU.
The next assay deals with H37Rv (RecA). In kind it is cell-based, Mycobacterium tuberculosis.
Assay [3] relates to M. tuberculosis H37Rv. In words: microbe, parasite or virus in culture. In kind it is cell-based. As to conditions: Mycobacterium tuberculosis, read-out: MIC90, H37Rv.
The next assay has as its system M. tuberculosis. As to conditions: 200 mg/kg, 14 days of dosing, published study; cited from earlier work.
In assay [4] the test system is recA promoter reporter in M. tuberculosis H37Rv. In kind it is cell-based, Mycobacterium tuberculosis. As to conditions: at 0.5× MIC.
A further assay concerns M. tuberculosis ΔcydA. The assay is classed as cell-based.
A further assay relates to N. gonorrhoeae. The assay is classed as cell-based.

In brackets after ≈: the same amount, converted by molar mass.

With `COc1c(N2C[C@@H]3CCCN[C@@H]3C2)c(F)cc2c(=O)c(C(=O)O)cn(C3CC3)c12` [Moxifloxacin, moxifloxacin], the MIC in the assay on M. tuberculosis H37Rv [1] (H37Rv, 7 days, Middlebrook 7H9 with OADC and glycerol, read-out: MIC (dose-response)) is 0.38 µM (≈ 0.153 µg/mL); in the assay on M. tuberculosis H37Rv [2] (H37Rv, 7H9 medium with DPPC/Casitone/tyloxapol, read-out: MIC, DPPC/CAS/TX), 0.2 µM (≈ 0.0803 µg/mL); with M. tuberculosis H37Rv [2] (H37Rv, 7H9 medium with albumin-dextrose catalase/glucose/Tween, read-out: MIC, ADC/GLU/TW), 0.17 µM (≈ 0.0682 µg/mL); in the assay on M. tuberculosis H37Rv [2] (H37Rv, 7H9 medium with glucose/BSA/tyloxapol, read-out: MIC, GLU/BSA/TX), 0.3 µM (≈ 0.12 µg/mL). Further, the MBC with M. tuberculosis H37Rv [1] (H37RV, CARA, transfer to charcoal agar, additional 7 days) turned out to be 0.78 µM (≈ 0.313 µg/mL). For the same compound, the “n, number of mice showing viable bacteria above the lower limit of detection/total number of animals tested” value in the assay on Mtb is listed as 3/6. Also, the “PrecA-LUX MIC” value in the assay on H37Rv (RecA) is ~ 0.19 μM. Further, the MIC90 in the assay on M. tuberculosis H37Rv [3] worked out at 0.24 µM (≈ 0.0963 µg/mL). Also, the CFU reduction in the assay with M. tuberculosis was 3.3 log10 CFU. In assay [4], the “PrecA-LUX signal higher than for 22” value was roughly 6 fold.
On to `CO[C@H]1/C=C/O[C@@]2(C)Oc3c(C)c(O)c4c(O)c(c(/C=N/N5CCN(C)CC5)c(O)c4c3C2=O)NC(=O)/C(C)=C\C=C\[C@H](C)[C@H](O)[C@@H](C)[C@@H](O)[C@@H](C)[C@H](OC(C)=O)[C@@H]1C` [Rif, rifampicin], for which, in the assay on M. tuberculosis ΔcydA, the “MIC90, ΔcydA” value amounted to 0.0046 µM (≈ 0.00379 µg/mL). In addition, in the assay with M. tuberculosis H37Rv [3], the MIC90 stood at 0.002 µM (≈ 0.00165 µg/mL).
With `C[C@@H]1CN2c3c(cc4c(N5C(=O)OC[C@@H]5C)noc4c3F)CC3(C(=O)NC(=O)NC3=O)[C@H]2[C@H](C)O1` [Zoliflodacin, zoliflodacin, reference compound], the MIC in the assay on M. tuberculosis H37Rv [2] (H37RV, read-out: MIC, ADC/GLU/TW) was 6.4 µM (≈ 3.12 µg/mL); with M. tuberculosis H37Rv [2] (H37RV, read-out: MIC, DPPC/CAS/TX), 19 µM (≈ 9.26 µg/mL); in the assay on M. tuberculosis H37Rv [2] (H37RV, read-out: MIC, DPPC/Chol/BSA/TX), 19 µM (≈ 9.26 µg/mL); in the assay with M. tuberculosis H37Rv [2] (H37RV, read-out: MIC, GLU/BSA/TX), 12 µM (≈ 5.85 µg/mL); with M. tuberculosis H37Rv [2] (H37RV, read-out: MIC, GLU/CAS/TX) it was 19 µM (≈ 9.26 µg/mL). Besides, the “MIC against N. gonorrhoeae lower than that for 22” value against N. gonorrhoeae amounted to 8 fold.
